# Test results reported in patent publication EP4656207A1, “IN VITRO METHOD FOR T[…] TARGET CELL” (Fundació Hospital Universitari Vall Hebron - Institut de …, priority 2024, dated 2025).
# Legend:
# HEK-293T cells = experiment: Lentiviral transduction enhancement in HEK-293T cells (GFP+ cells by flow cytometry); type: cell-based, human; details: for transduction enhancing activity: K18-derived peptides at 1 µM compared with commercial TE, MOI = 1 (Figure 3)
# Procedure: (§1) To carry out the transduction enhancement assays, 3000 cells (HEK-293T or NIH/3T3, both purchased at the ATCC) were seeded in 100 µL of culture medium (consisting of Dulbecco's Modified Eagle Medium (high glucose) (DMEM, Gibco™), supplemented with 10% fetal bovine serum (FBS), 1% L-glutamine and 1% penicillin/streptomycin (P/S) (both from Cultek S.L.U.), per well, in culture-treated flat-bottomed 96-well plates, and incubated for 24 h at 37° with 5% CO2 and 100% relative humidity.
# (§2) The vector was diluted in complete medium, and the appropriate amounts were added to each well at the chosen MOI into a final volume of 200 µL per well, in the absence or presence of the chosen TE (peptides, LB, VF-1, PS, RN, PGE2) at different concentrations and following the manufacturer's recommendations. The culture medium was changed 24 h after transduction and the cells were incubated for 48 h more until the plate was analyzed 3 days post-transduction by flow cytometry.
# All experiments included a non-transduced control (cells only) without vector exposure, and a control with vectors but without TE (basal transduction). In all assays, a minimum of three replicates (technical replicates) were performed per experimental condition, and were repeated a minimum of three times (experimental replicates) for statistical analysis.
# Transduction efficiency was analyzed using an LSR Fortessa cell analyzer (Becton, Dickinson, New Jersey, USA), after 3, 7 or 14 days post-transduction (depending on the target cell type). First, cells were transferred using a multichannel pipette to a U-bottom 96-well plate. Live and dead cells were dis-criminated using 1 µg/mL 7-amino-actinomycin D (7-AAD).
# To analyze the transduction efficacy and cytotoxicity of the compounds used, different gates of analysis were defined. Samples of transduced cells (labeled and unlabeled with PI or 7-AAD), with a minimum of 10.000 events in the relevant gate, were acquired. Further, appropriate thresholds were established to define the cell populations. Four final gates were created and applied sequentially: • Gate 1. Plotting forward scatter high or FSC-H (Forward scatter height) versus forward scatter area or FSC-A (Forward scatter area). Here single events were gated to eliminate doublets. • Gate 2. Plotting the Side scatter area (SSC-A) against the Forward scatter area (FSC-A). This gate was used to eliminate cellular debris and atypical and undesired events, taking into account their morphology and complexity. • Gate 3. Thanks to the labeling of the cells with PI or 7-AAD it was possible to calculate the percentage of dead cells and eliminate them from the study. Only live cells were considered for the subsequent analysis gate. • Gate 4. The percentage of live transduced cells was obtained using eGFP fluorescence (FL1). As an additional parameter, the Mean Fluorescence Intensity (MFI) of the transduced cells was measured. The MFI is the mean of all fluorescence intensities of individual cells (or events) in a desired population. In our case, the MFI values obtained represented the mean fluorescence level of eGFP in the transduced cells (gate 4). All data were obtained and analyzed using FACSDiva software v6.2 and FlowJo v10 software (both from BD Biosciences).
# NIH/3T3 cells = experiment: Lentiviral transduction enhancement in NIH/3T3 cells (GFP+ cells and living cells by flow cytometry); type: cell-based, murine; details: micellar peptide at 1 µM; MOI = 1; GFP+ cells 72 h after vector exposure; compared with other TEs (Figure 1)
# Procedure: as §1
# as §2, with “cytometry. […]” for “cytometry.”
# (§3) Transduction efficiency was analyzed using an LSR Fortessa cell analyzer (Becton, Dickinson, New Jersey, USA), after 3, 7 or 14 days post-transduction (depending on the target cell type). […]
# To analyze the transduction efficacy and cytotoxicity of the compounds used, different gates of analysis were defined. […] The percentage of live transduced cells was obtained using eGFP fluorescence (FL1). […]
# CD34^+ cells = experiment: Lentiviral transduction enhancement in CD34+ hematopoietic cells (flow cytometry); type: cell-based, human; details: peptides at 3 µM, LB 5 mg/mL; MOI = 1; days 3, 7 and 14 after transduction; only K18-8R and LentiBoost statistically significant vs basal transduction (Figure 4)
# Procedure: • 1. The CD34^+ cells were isolated from apheresis products from healthy donors and cryopreserved in liquid nitrogen until use. Cells were then thawed, counted with trypan blue, and seeded in culture-treated 96-well flat-bottom plates, about 50.000 cells per well in 100 µL of complete StemSpan™ SFEM Hematopoietic Cell Culture Medium (SFEM medium) (Stem Cell Technologies™, Vancouver, Canada), and incubated at 37°C, 5% CO2 and 100% relative humidity. The complete medium was supplemented with recombinant human stem cell factor (rhSCF), recombinant human flt3 ligand (rhFlt3-L) and recombinant human thrombopoietin (rhTpo) (all from EuroBioScience, Friesoythe, Germany). • 2. After 24 h in culture, the cells were transduced as follow: Previously, the required volume of lentiviral vector was calculated in accordance with the vector titer, the CD34^+ target cell number and the desired MOI. Prior to its use, the vector was diluted in complete SFEM medium. • 3. […] Finally, at 3, 7 and 14 days post-transduction, the cells were analyzed by flow cytometry and the plates were stored at -80° for future analyses.
# as §3
# CD4^+ T cells = experiment: Lentiviral (anti-CD19 CAR) transduction enhancement in CD4+ T cells (flow cytometry); type: cell-based, human; details: 72 h after transduction; differences between the four compounds not statistically significant (Figure 6)
# Procedure: • 1. After isolation and activation of the CD4^+ T cells, a suspension of 10^6 cells/mL was prepared and 100 µL were added per well to a 96-well flat-bottom plate and incubated at 37°C, 5% CO2, and 100% relative humidity. After 24 h in culture, the vector was diluted to the desired concentration and mixed with the different TEs (peptides, LB, VF-1, PS, PGE2), and 50 µL per well of the vector-TEs solution was added. The A3B1:CD8:4-1BB:CD3ζ (also named ARI001-CodonOptimized3 vector), a third generation lentiviral vector encoding an anti-human CD19 CAR, was used for this assay. • 2. After 72 h post-transduction, samples were collected and stained for flow cytometry analysis: First, the entire plate contents were transferred to a pre-labeled 96-well roundbottom plate. Two washes were performed with 1X PBS, adding 100 µL per well and centrifuging the plate for 2' at 2000 rpm. In the last wash, the supernatant was discarded, and 100 µL of a working solution of eFluor™ 450 - Fixable Viability Dye Live/Dead (eBioscience™) was added and incubated for 30' at RT. • 3. Two washes were performed with 200 µL of FACS buffer (PBS 1X + 3% FBS). […] Finally, transduction efficiency was analyzed by flow cytometry to determine the percentage of CAR-positive T cells.
# NK cells = experiment: Lentiviral transduction enhancement in primary NK cells (flow cytometry); type: cell-based, human; details: MOI = 5; for fold changes: fold change relative to basal transduction, 1.5 µM
# Procedure: • 1. Total blood samples were collected and processed in less than 4 h. After obtaining the peripheral blood mononuclear cells (PBMCs) by density gradient centrifugation (Ficoll), NK cells (following the instructions of the Miltenyi Biotec isolation kit) from human they were seeded in a 24-well plate [10^6 cells per well in 1 mL of complete medium (NK MACS supplemented with 5% AB serum (Tebu-Bio, Le Perray, France), recombinant human IL-2 (rhIL-2) and recombinant human IL-15 (rhIL-15), both from Miltenyi Biotec)], and incubated at 37°C, 5% CO2, and 100% relative humidity. • 2. After 48 h in culture, cells were counted, and about 40,000 cells were seeded in 100 µL of complete medium (per well) in culture-treated 96-well flat-bottom plate. The transduction process was performed as follows: • 3. Calculate the required volume of lentiviral vector for a known number of NK cells and desired MOI, and the vector diluted in complete medium. Simultaneously, prepare all the enhancers to be used in the assay (micellar peptides, LB, PS, VF-1, etc.) at the concentrations recommended by the manufacturers. […] At days 3, 7 and 14 post-transduction, the cells were analyzed by flow cytometry.
# as §3
# To analyze the transduction efficacy and cytotoxicity of the compounds used, different gates of analysis were defined. […] The percentage of live transduced cells was obtained using eGFP fluorescence (FL1). As an additional parameter, the Mean Fluorescence Intensity (MFI) of the transduced cells was measured. The MFI is the mean of all fluorescence intensities of individual cells (or events) in a desired population. In our case, the MFI values obtained represented the mean fluorescence level of eGFP in the transduced cells (gate 4). All data were obtained and analyzed using FACSDiva software v6.2 and FlowJo v10 software (both from BD Biosciences).
# [1] = concentrations higher than 10-15 µM; dose-dependent
# Procedure: Studies with the fluorochrome Yo-Pro-1 were performed at the laboratory of Dr. Pablo Pelegrin, at the University of Murcia.
# Antimicrobial activity = type: cell-based; details: concentrations higher than 10-15 µM; dose-dependent
sequence,measurement,setting,value
"LLNIKVKLEAEIATYRRLLE (poloxamer F-127 micelles) [K18, conjugated to poloxamer F-127 polymeric micelles]",transduction enhancing activity,HEK-293T cells,highest activity
"LLNIKVKLEAEIRRRRRRRR (poloxamer F-127 micelles) [K18-8R, first 12 amino acids of K18 plus an 8R tail; conjugated to poloxamer F-127 polymeric micelles]",transduction enhancing activity,NIH/3T3 cells,highest transduction enhancing activity
same,transduction enhancing activity at higher concentrations,"HEK-293T cells; 5 µM or more, MOI 1 and 5, perhaps due to toxicity (Figure 2)",decreased
same,transduction enhancing activity,HEK-293T cells,highest activity
same,transduction enhancement,"HEK-293T cells; peptide at 1 µM, MOI 1 and 5, experiment made only once (Figure 2)",highest transduction enhancement
same,enhancing efficacy (transduction efficiencies by flow cytometry),CD34^+ cells,highest enhancing efficacy
same,transduction efficiency,CD4^+ T cells,highest transduction efficiency
same,fold changes,NK cells; day 3,2.2
same,fold changes,NK cells; day 14,3.5
same,enhancing activity,"NK cells; peptides at 1.5 µM, compared with scrambled control, micelle alone and LB (Figure 7)",highest enhancing activity
same,cytotoxic activity,[1],predominated
same,hemolytic activity,[1],predominated
same,antimicrobial activity,Antimicrobial activity,predominated
"LLNKEIKIEVALARRRRRRRR (polymeric micelles) [Sc-K18-8R, conjugated to polymeric micelles, reference compound]",enhancing efficacy (transduction efficiencies by flow cytometry),CD34^+ cells,significant enhancing activity
LLNVKMALDIEIRRRRRRRR [DIF-P-8R],enhancing activity,"HEK-293T cells; several concentrations, MOI 1 and 5, experiment made only once (Figure 2)","enhancing activity, that was higher at 5-15 µM than at 1 µM"
